Reference: patent US5336673A, “3-substituted cephem compounds” (priority 1990, dated 1994)
Values after ≈ are worked out from the molar mass of the structure shown. Like-named read-outs stand apart in the source and are kept apart here.

Key:
[1] = test system: Streptococcus pyogenes A 77; assay: Antibacterial activity, MIC by Agar dilution method, standard test strain 2; assay type: cell-based; settings: A77, 10^7 CFU/ml, 37° C., 18 hours
Method: (§1) The antibacterial activity was determined by an Agar dilution method as described below.
(§2) That is, the two-fold serial dilutions of the antibacterial compounds (1000 μg compound/ml) were prepared and dispersed in Muller Hinton Agar in a petri dish to a concentration of 100~0.002 μg/ml. The culture broths of standard test strains were inoculated on the medium to a concentration 10^7 CFU/ml, and incubated at 37° C. for 18 hours. The concentration of compounds(I) at which the strains were not grown was regarded as minimum inhibition concentration (MIC).
(§3) The results of antibacterial activity test of the representative examples of the compound (I) against 20 standard test strains shown in terms of MIC were indicated in Table 1.
2. Streptococcus pyogenes A 77

[2] = test system: Gram-positive strains as well as Gram-negative strains including Pseudomonas; assay: Antibacterial activity (summary in words); assay type: cell-based; settings: Gram-positive and Gram-negative strains
Method: as §1, §2

[3] = test system: Pseudomonas aeruginosa 9027; assay: Antibacterial activity, MIC by Agar dilution method, standard test strain 12; assay type: cell-based; settings: 10^7 CFU/ml, 37° C., 18 hours
Method: as §1, §2, §3
12. Pseudomonas aeruginosa 9027

[4] = test system: Pseudomonas aeruginosa 1771; assay: Antibacterial activity, MIC by Agar dilution method, standard test strain 14; assay type: cell-based; settings: 10^7 CFU/ml, 37° C., 18 hours
Method: as §1, §2, §3
14. Pseudomonas aeruginosa 1771

Escherichia coli DC O = assay: Antibacterial activity, MIC by Agar dilution method, standard test strain 8; assay type: cell-based; settings: Escherichia coli DC O; 10^7 CFU/ml, 37° C., 18 hours; read-out: MIC
Method: as §1, §2, §3

Escherichia coli 1507E = assay: Antibacterial activity, MIC by Agar dilution method, standard test strain 11; assay type: cell-based
Method: as §1, §2, §3

Klebsiella oxytoca 1082E = assay: Antibacterial activity, MIC by Agar dilution method, standard test strain 17; assay type: cell-based; settings: 10^7 CFU/ml, 37° C., 18 hours
Method: as §1, §2, §3

Escherichia coli DC 2 = assay: Antibacterial activity, MIC by Agar dilution method, standard test strain 9; assay type: cell-based; settings: DC2; Escherichia coli DC 2; 10^7 CFU/ml, 37° C., 18 hours; read-out: MIC
Method: as §1, §2, §3

Escherichia coli TEM = assay: Antibacterial activity, MIC by Agar dilution method, standard test strain 10; assay type: cell-based; settings: Escherichia coli TEM; 10^7 CFU/ml, 37° C., 18 hours; read-out: MIC
Method: as §1, §2, §3

[5] = test system: Klebsiella aerogenes 1522E; assay: Antibacterial activity, MIC by Agar dilution method, standard test strain 18; assay type: cell-based; settings: Klebsiella aerogenes 1522E; 10^7 CFU/ml, 37° C., 18 hours; read-out: MIC
Method: as §1, §2, §3
18. Klebsiella aerogenes 1522E

[6] = test system: Staphylococcus aureus SG 511; assay: Antibacterial activity, MIC by Agar dilution method, standard test strain 4; assay type: cell-based; settings: SG511, 10^7 CFU/ml, 37° C., 18 hours
Method: as §1, §2, §3
4. Staphylococcus aureus SG 511

[7] = test system: Pseudomonas aeruginosa 1771M; assay: Antibacterial activity, MIC by Agar dilution method, standard test strain 15; assay type: cell-based; settings: 18 h
Method: as §1, §2, §3
15. Pseudomonas aeruginosa 1771M

Staphyloccus aureus 285 = assay: Antibacterial activity, MIC by Agar dilution method, standard test strain 5; assay type: cell-based; settings: 10^7 CFU/ml, 37° C., 18 hours
Method: as §1, §2, §3
5. Staphyloccus aureus 285

[8] = test system: Streptococcus pyogenes A 308; assay: Antibacterial activity, MIC by Agar dilution method, standard test strain 1; assay type: cell-based; settings: A308, 10^7 CFU/ml, 37° C., 18 hours
Method: as §1, §2, §3
1. Streptococcus pyogenes A 308

Enterobacter cloacae P99 = assay: Antibacterial activity, MIC by Agar dilution method, standard test strain 19; assay type: cell-based; settings: P99, 18 h
Method: as §1, §2, §3
19. Enterobacter cloacae P99

[9] = test system: Staphylococcus aureus 503; assay: Antibacterial activity, MIC by Agar dilution method, standard test strain 6; assay type: cell-based; settings: 10^7 CFU/ml, 37° C., 18 hours
Method: as §1, §2, §3
6. Staphylococcus aureus 503

Escherichia coli O 55 = assay: Antibacterial activity, MIC by Agar dilution method, standard test strain 7; assay type: cell-based
Method: as §1, §2, §3

[10] = test system: Streptococcus faecium MD 86; assay: Antibacterial activity, MIC by Agar dilution method, standard test strain 3; assay type: cell-based; settings: Enterococcus faecium, MD86, 10^7 CFU/ml, 37° C., 18 hours
Method: as §1, §2, §3
3. Streptococcus faecium MD 86

[11] = test system: Enterobacter cloacae 1321E; assay: Antibacterial activity, MIC by Agar dilution method, standard test strain 20; assay type: cell-based; settings: Enterobacter cloacae 1321E; 10^7 CFU/ml, 37° C., 18 hours; read-out: MIC
Method: as §1, §2, §3
20. Enterobacter cloacae 1321E

[12] = test system: Pseudomonas aeruginosa 1592E; assay: Antibacterial activity, MIC by Agar dilution method, standard test strain 13; assay type: cell-based; settings: 10^7 CFU/ml, 37° C., 18 hours
Method: as §1, §2, §3
13. Pseudomonas aeruginosa 1592E

Salmonella typhimurium = assay: Antibacterial activity, MIC by Agar dilution method, standard test strain 16; assay type: cell-based; settings: Salmonella enterica, 10^7 CFU/ml, 37° C., 18 hours
Method: as §1, §2, §3
16. Salmonella typhimurium

Acute toxcity test = settings: in vivo, male ICR-mouse, after 1 week
Method: Further, in order to illustrate the usefulness of the compounds (I) as a drug, compounds of Examples 12, 18 and 36 were tested for acute toxcity by using 4 weeks-old male ICR-mouse as a test animal.
the compounds were dissolved in physiological saline and phosphate buffered solution (pH 7.0), or if they were […], suspended in carboxymethylcellulose or gum Arabic and then mixed with phosphate buffered solution.
The solution or mixture was administered to the tested animals intravenously or subcutaneously and, after 1 week, the number of surviving animals was calculated.

[13] = Escherichia coli 1507E, 10^7 CFU/ml, 37° C., 18 hours, read-out: MIC

CO/N=C(\C(=O)N[C@@H]1C(=O)N2C(C(=O)[O-])=C(C[N+]3(N)CCCC3)CS[C@H]12)c1csc(N)n1 [Example 1, (6R,7R)-7-[(Z)-2-(2-aminothiazol-4-yl)-2-methoxyiminoacetamido]-3-(1-aminopyrrolidiniummethyl)ceph-3-em-4-carboxylate]
MIC [1]: 0.025 µg/mL (≈ 0.0519 µM)
antibacterial activity (in words) [2]: excellent antibacterial activity
MIC [3]: 100 µg/mL (≈ 208 µM)
MIC [4]: 50 µg/mL (≈ 104 µM)
MIC (Escherichia coli DC O): 0.195 µg/mL (≈ 0.405 µM)
MIC (Escherichia coli 1507E; [13]): 0.391 µg/mL (≈ 0.812 µM)
MIC (Klebsiella oxytoca 1082E): 12.5 µg/mL (≈ 26 µM)
MIC (Escherichia coli DC 2): 0.391 µg/mL (≈ 0.812 µM)
MIC (Escherichia coli TEM): 0.391 µg/mL (≈ 0.812 µM)
MIC [5]: 0.195 µg/mL (≈ 0.405 µM)
MIC [6]: 6.26 µg/mL (≈ 13 µM)
MIC [7]: 3.12 µg/mL (≈ 6.49 µM)
MIC (Staphyloccus aureus 285): 12.5 µg/mL (≈ 26 µM)
MIC [8]: 0.025 µg/mL (≈ 0.0519 µM)
MIC (Enterobacter cloacae P99): > 100 µg/mL
MIC [9]: 1.56 µg/mL (≈ 3.25 µM)
MIC (Escherichia coli O 55; Escherichia coli, O55, 18 h): 0.195 µg/mL (≈ 0.405 µM)
MIC [10]: > 100 µg/mL
MIC [11]: 0.098 µg/mL (≈ 0.204 µM)
MIC [12]: 100 µg/mL (≈ 208 µM)
MIC (Salmonella typhimurium): 0.781 µg/mL (≈ 1.62 µM)

CO/N=C(\C(=O)N[C@@H]1C(=O)N2C(C(=O)[O-])=C(C[n+]3cn(N)c4ccccc43)CS[C@H]12)c1csc(N)n1 [Example 19, (6R,7R)-7-[(Z)-2-(2-aminothiazol-4-yl)-2-methoxyiminoacetamido]-3-[(1-aminobenzimidazol-3-ium)methyl]-ceph-3-em-4-carboxylate]
MIC [1]: 0.007 µg/mL (≈ 0.0132 µM)
antibacterial activity (in words) [2]: excellent antibacterial activity
MIC [3]: 50 µg/mL (≈ 94.6 µM)
MIC [4]: 12.5 µg/mL (≈ 23.6 µM)
MIC (Escherichia coli DC O): 0.391 µg/mL (≈ 0.74 µM)
MIC (Escherichia coli 1507E; [13]): 0.391 µg/mL (≈ 0.74 µM)
MIC (Klebsiella oxytoca 1082E): 3.12 µg/mL (≈ 5.91 µM)
MIC (Escherichia coli DC 2): 0.391 µg/mL (≈ 0.74 µM)
MIC (Escherichia coli TEM): 0.391 µg/mL (≈ 0.74 µM)
MIC [5]: 0.195 µg/mL (≈ 0.369 µM)
MIC [6]: 0.781 µg/mL (≈ 1.48 µM)
MIC [7]: 0.781 µg/mL (≈ 1.48 µM)
MIC (Staphyloccus aureus 285): 0.781 µg/mL (≈ 1.48 µM)
MIC [8]: 0.013 µg/mL (≈ 0.0246 µM)
MIC (Enterobacter cloacae P99): > 100 µg/mL
MIC [9]: 0.391 µg/mL (≈ 0.74 µM)
MIC (Escherichia coli O 55; Escherichia coli, O55, 18 h): 0.098 µg/mL (≈ 0.185 µM)
MIC [10]: > 100 µg/mL
MIC [11]: 0.195 µg/mL (≈ 0.369 µM)
MIC [12]: 25 µg/mL (≈ 47.3 µM)
MIC (Salmonella typhimurium): 0.195 µg/mL (≈ 0.369 µM)

CO/N=C(\C(=O)N[C@@H]1C(=O)N2C(C(=O)[O-])=C(C[N+]3(N)CCc4ccccc4C3)CS[C@H]12)c1csc(N)n1 (stereo partly drawn) [Example 5, (6R,7R)-7-[(Z)-2-(2-aminothiazol-4-yl)-2-methoxyiminoacetamido]-3-[(2-amino-1,2,3,4-tetrahydroisoquinolin-2-ium)methyl]-ceph-3-em-4-carboxylate]
MIC [1]: 0.013 µg/mL (≈ 0.0239 µM)
antibacterial activity (in words) [2]: excellent antibacterial activity
MIC [3]: 50 µg/mL (≈ 92 µM)
MIC [4]: 50 µg/mL (≈ 92 µM)
MIC (Escherichia coli DC O): 0.391 µg/mL (≈ 0.719 µM)
MIC (Escherichia coli 1507E; [13]): 0.781 µg/mL (≈ 1.44 µM)
MIC (Klebsiella oxytoca 1082E): 12.5 µg/mL (≈ 23 µM)
MIC (Escherichia coli DC 2): 0.781 µg/mL (≈ 1.44 µM)
MIC (Escherichia coli TEM): 0.781 µg/mL (≈ 1.44 µM)
MIC [5]: 0.013 µg/mL (≈ 0.0239 µM)
MIC [6]: 1.56 µg/mL (≈ 2.88 µM)
MIC [7]: 1.56 µg/mL (≈ 2.88 µM)
MIC (Staphyloccus aureus 285): 6.25 µg/mL (≈ 11.5 µM)
MIC [8]: 0.049 µg/mL (≈ 0.0901 µM)
MIC (Enterobacter cloacae P99): 100 µg/mL (≈ 184 µM)
MIC [9]: 0.781 µg/mL (≈ 1.44 µM)
MIC (Escherichia coli O 55; Escherichia coli, O55, 18 h): 0.391 µg/mL (≈ 0.719 µM)
MIC [10]: 50 µg/mL (≈ 92 µM)
MIC [11]: 0.013 µg/mL (≈ 0.0239 µM)
MIC [12]: 50 µg/mL (≈ 92 µM)
MIC (Salmonella typhimurium): 0.781 µg/mL (≈ 1.44 µM)

CC(C)(O/N=C(\C(=O)N[C@@H]1C(=O)N2C(C(=O)[O-])=C(C[n+]3cn(N)cn3)CS[C@H]12)c1csc(N)n1)C(=O)O [Example 36, (6R,7R)-7-[(Z)-2-(2-aminothiazol-4-yl)-2-(2-carboxyprop-2-oxyimino)acetamido]-3-[(4-amino-1,2,4-triazol-2-ium)methyl]-ceph-3-em-4-carboxylate]
MIC [1]: 0.049 µg/mL (≈ 0.0888 µM)
antibacterial activity (in words) [2]: excellent antibacterial activity
MIC [3]: 6.25 µg/mL (≈ 11.3 µM)
MIC [4]: 1.56 µg/mL (≈ 2.83 µM)
MIC (Escherichia coli DC O): 0.781 µg/mL (≈ 1.42 µM)
MIC (Escherichia coli 1507E; Escherichia coli, 1507E, 18 h): 1.56 µg/mL (≈ 2.83 µM)
MIC (Klebsiella oxytoca 1082E): 100 µg/mL (≈ 181 µM)
MIC (Escherichia coli DC 2): 0.195 µg/mL (≈ 0.354 µM)
MIC (Escherichia coli TEM): 3.12 µg/mL (≈ 5.67 µM)
MIC [5]: 0.781 µg/mL (≈ 1.42 µM)
MIC [6]: 1.56 µg/mL (≈ 2.83 µM)
MIC [7]: 0.098 µg/mL (≈ 0.178 µM)
MIC (Staphyloccus aureus 285): 3.12 µg/mL (≈ 5.67 µM)
MIC [8]: 0.098 µg/mL (≈ 0.178 µM)
MIC (Enterobacter cloacae P99): 100 µg/mL (≈ 181 µM)
MIC [9]: 1.56 µg/mL (≈ 2.83 µM)
LD50 at 168 h (Acute toxcity test; sc, Subcutaneous administration): > 6000 mg/kg
LD50 at 168 h (Acute toxcity test; Intravenous administration): > 4000 mg/kg
MIC (Escherichia coli O 55; O55, Escherichia coli O 55, 10^7 CFU/ml, 37° C., 18 hours, read-out: MIC): 0.195 µg/mL (≈ 0.354 µM)
MIC [10]: 25 µg/mL (≈ 45.3 µM)
MIC [11]: 0.391 µg/mL (≈ 0.709 µM)
MIC [12]: 6.25 µg/mL (≈ 11.3 µM)
MIC (Salmonella typhimurium): 6.25 µg/mL (≈ 11.3 µM)
